In PubChem BioAssay (NCI):
“And” between values parts separate entries of the source, which are not always exact repeats. Equal entries are not always repeated.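 In this assay, cells in 96-well plates receive the compound at five concentrations for 48 hours. Endpoints are linearly interpolated between the surrounding concentrations. GI50 is the concentration that inhibits growth by half. TGI: total growth inhibition.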

Tests used:
Experiment in all cases: NCI tumour cell line growth inhibition, 48 h
CCRF-CEM leukemia = test system: CCRF-CEM leukemia
DLD-1 colon = test system: DLD-1 colon
HL-60(TB) leukemia = test system: HL-60(TB) leukemia
HOP-92 NSCLC = test system: HOP-92 NSCLC
LXFL 529 NSCLC = test system: LXFL 529 NSCLC
PC-3 prostate = test system: PC-3 prostate
SF-295 CNS = test system: SF-295 CNS
SK-MEL-2 melanoma = test system: SK-MEL-2 melanoma
U251 CNS = test system: U251 CNS
UACC-257 melanoma = test system: UACC-257 melanoma

| SMILES | TGI (CCRF-CEM leukemia) | TGI (DLD-1 colon) | TGI (HL-60(TB) leukemia) | TGI (HOP-92 NSCLC) | TGI (LXFL 529 NSCLC) | TGI (PC-3 prostate) | TGI (SF-295 CNS) | TGI (SK-MEL-2 melanoma) | TGI (U251 CNS) | TGI (UACC-257 melanoma) | GI50 (HL-60(TB) leukemia) | GI50 (HOP-92 NSCLC) | GI50 (LXFL 529 NSCLC) | GI50 (SF-295 CNS) | GI50 (SK-MEL-2 melanoma) | GI50 (U251 CNS) |
| --- | --- | --- | --- | --- | --- | --- | --- | --- | --- | --- | --- | --- | --- | --- | --- | --- |
| COc1ccccc1NC(=O)CC(=O)n1nc(C)c(N=Nc2ccccc2Cl)c1C | > 100 µM | > 100 µM | > 100 µM | > 100 µM | > 100 µM | > 100 µM | > 100 µM | > 100 µM | > 44.2 µM | > 100 µM |  |  |  |  |  |  |
| O=[N+]([O-])c1cc(I)cc(/C=N/NS(=O)(=O)c2ccc(Cl)cc2)c1O | 58.5 µM | 59.4 µM | 55.8 µM | 37.6 µM | 37.2 µM |  | 60.6 µM | 42.7 µM | 40.3 µM | 53.9 µM |  |  |  |  |  |  |
| CCc1cccc(C(C)CC)c1NC(=O)C(=O)Cc1nc2ccccc2o1 (stereo unspecified) | > 50 µM | > 50 µM | > 50 µM | > 50 µM | > 50 µM |  | > 50 µM | > 50 µM | > 50 µM | > 50 µM |  |  |  |  |  |  |
| CC(C)CCCCCCCCCCCCC(=O)NCC(=O)NC1C(C)OC(Nc2ncnc3nc[nH]c23)C(O)C1O (stereo unspecified) | 0.223 µM | 0.105 µM | 0.0046 µM and 0.0141 µM | 0.00219 µM and 0.00491 µM | 0.515 µM |  | < 0.0295 µM |  | 0.038 µM | 0.472 µM | 0.001 µM | 0.000324 µM | 0.00336 µM | 0.0176 µM | 0.0183 µM | 0.000334 µM |
| CN(C)CCN(C)C(=O)c1cccc2cccc(C(=O)O)c12 | > 100 µM | > 100 µM | > 100 µM | > 100 µM | > 100 µM |  | > 100 µM | 38.7 µM | > 100 µM | > 100 µM |  |  |  |  |  |  |
| Cc1[nH]c2ccccc2c1C1=NO/C(=N\O)C(c2c(C)[nH]c3ccccc23)C1 (stereo unspecified) | > 100 µM | > 100 µM | 54 µM | > 78.5 µM | > 100 µM |  | > 100 µM | > 100 µM | > 100 µM | > 100 µM |  |  |  |  |  |  |
| C[C@]12CCc3nonc3C1CC[C@@H]1C2CC[C@@]2(C)C1CC[C@@H]2O (stereo partly specified) | > 100 µM | > 100 µM | > 100 µM | > 100 µM | > 100 µM |  | > 100 µM | > 100 µM | > 100 µM | > 100 µM |  |  |  |  |  |  |
| CCOC(=O)CNC(=O)OCc1ccccc1 | > 100 µM | > 100 µM | > 100 µM | > 100 µM | > 100 µM |  | > 100 µM | > 100 µM | > 100 µM | > 100 µM |  |  |  |  |  |  |
| O=C1NC2(CCCC2)C2CCCCC12O (stereo unspecified) | > 100 µM | > 100 µM | > 100 µM | > 100 µM | > 100 µM |  | > 100 µM | > 100 µM | > 100 µM | > 100 µM |  |  |  |  |  |  |
| Brc1ccc(C=NC23CC4CC(CC(C4)C2)C3)cc1 | > 100 µM | > 100 µM | > 100 µM | > 100 µM | > 100 µM |  | > 100 µM | > 100 µM | > 100 µM | > 100 µM |  |  |  |  |  |  |
